Among the data in PubChem BioAssay AID850 (SRMLSC, 2007) are inhibition and IC50 values, retold here.

The nature of assay [1]: yeast lifespan-shortening chemical project counter-assay, dose-response inhibition of growth under permissive conditions (AID 850).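 Note: growth read as optical density after one day of incubation.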 To be noted: Saccharomyces cerevisiae growth inhibition, permissive control, measured here: maximum growth inhibition, stronger effect = higher value.
For assay [2], the system named is Saccharomyces cerevisiae growth inhibition, permissive control. The assay is described as above.

Active and inactive are the calls of the source. The rule behind the calls is not given here.

`COc1cc(OC)c(C2CC(=O)N3CN(C)CSC3=C2C#N)cc1OC` (configuration not stated): in assay [1] (at 0.781 µM), the inhibition (commonly the drop in the measured response relative to a control, in per cent) was 11%. For the same compound, the IC50 (usually the point on the concentration scale where inhibition reaches its midpoint) in assay [2] was > 100 µM (inactive).
Turning to `CCOc1ccc(/C=C/C(=O)c2cc(Br)ccc(=O)c2O)cc1`, the inhibition in assay [1] (at 50 µM) was 89.6%. Moreover, in assay [2], the IC50 is 16.7 µM.
The like results for `Cc1ccc(O)c(-c2cc(-c3cccc(F)c3)n[nH]2)c1` were, in that order, 96.9% and 25 µM.
The like results for `c1ccc(-c2nc3c(ccc4ccccc43)[nH]2)nc1` were, in that order, 80.8% and 36.8 µM.
Regarding `O/N=C/c1ccc(OCc2ccccc2)c(Br)c1`, the inhibition in assay [1] (at 0.781 µM) was found to be 11.2%. Moreover, the IC50 in assay [2] was > 100 µM (inactive).
Take `CC(C)(C)n1nc(-c2ccc(F)cc2)c2c(N)ncnc21`: the inhibition in assay [1] (at 25 µM) was determined as 86.7%. Besides, in assay [2], the IC50 was under 0.098 µM.
Turning to `CC(C)(C)c1ccc(NC(=O)COC(=O)c2ccc([N+](=O)[O-])s2)cc1`, the inhibition in assay [1] (at 50 µM) stood at 56.3%. Further, the half-maximal inhibitory concentration (IC50) in assay [2] is 49.5 µM.
For the compound `Oc1ccc(N=Nc2cccc(Cl)c2)cc1C=Nc1ccc(N2CCOCC2)cc1`, in assay [1] (at 12.5 µM), the inhibition was found to be 2.01%. The IC50 in assay [2] was > 100 µM (inactive).
As for `CCCc1cc(-c2n[nH]c(=S)n2C(C)c2ccccc2)cs1` (configuration not stated), the inhibition in assay [1] (at 0.391 µM) is 1.3%. The IC50 in assay [2] is > 100 µM (inactive).
Consider `O=C1c2cccc3cccc(c23)C(=O)N1c1cccnc1`, for which the inhibition in assay [1] (at 50 µM) was determined as 27.9%. In assay [2], the IC50 was > 100 µM (inactive).
In the case of `COc1ccc(C(=O)N/N=C/c2sc3ccccc3c2O)cc1`, the inhibition in assay [1] (at 0.781 µM) was 17%. In addition, the IC50 in assay [2] is > 100 µM (inactive).
`C=C(C)COc1ccc(-c2[nH]ncc2Oc2cccc(OC)c2)c(O)c1`: the inhibition in assay [1] (at 12.5 µM) turned out to be 20.1%. Besides, the IC50 in assay [2] is > 100 µM (inactive).
With `Oc1c(CN2CCc3ccccc3C2)cc(Cl)c2cccnc12`, the inhibition in assay [1] (at 50 µM) was determined as 101%. Moreover, the IC50 in assay [2] is 11.5 µM.
With `Cc1cc(C(=O)COC(=O)c2ccc[nH]c2=O)c(C)n1-c1ccc(Br)cc1`, the inhibition in assay [1] (at 50 µM) was 4.13%. In addition, the IC50 in assay [2] was > 100 µM (inactive).
For `C/C(=N\NC(=O)c1ccc(CSc2cccc3cccnc23)cc1)C1CCCCC1`, in that order: 93.4% and 29.7 µM.
The like results for `CC(C)c1ccc2c(c1)C1(NN=C(c3ccccc3)S1)C(=O)N2` (configuration not stated) were, in that order, 49.5% and 49.5 µM.
For `CC(=O)NC1C(=O)N=C(SCC(=O)NC2CCCCC2)NC1=O` (configuration not stated), in that order: 20.3% and > 100 µM (inactive).
For the compound `CC(C)N=c1scc(-c2cccs2)n1/N=C/c1ccc(O)c(O)c1O`, the inhibition in assay [1] (at 0.195 µM) turned out to be 2.13%. Besides, the IC50 in assay [2] was > 100 µM (inactive).
For the compound `CC(C)(C)c1cc(C(c2cccnc2)N2CCN(CCO)CC2)cc(C(C)(C)C)c1O` (configuration not stated), in assay [1] (at 50 µM), the inhibition was 53.3%. Also, the half-maximal inhibitory concentration (IC50) in assay [2] is 48.7 µM.
For `CC(=O)N1CCN(c2ccc(OC[C@H]3CO[C@](Cn4ccnc4)(c4ccc(Cl)cc4Cl)O3)cc2)CC1`, in that order: 96% and 4.25 µM.
`Cc1ccc(-n2nnc3c(=O)n(CC(=O)N4CCC(C)CC4)cnc32)cc1`: in assay [1] (at 25 µM), the inhibition was found to be 17.4%. The IC50 in assay [2] is > 100 µM (inactive).
`c1ccc(Cc2nnc3sc(-c4ccco4)nn23)cc1`: in assay [1] (at 25 µM), the inhibition stood at 4.05%. Also, in assay [2], the IC50 was > 100 µM (inactive).
As for `CN(O)/C=c1/ccc2c(n1)C(=O)C=CC=2`, the inhibition in assay [1] (at 12.5 µM) turned out to be 98%. Besides, the concentration for half-maximal inhibition (IC50) in assay [2] was 8.03 µM.
For `Cc1nc2ccccc2c2c1C(=O)N(C)C2=O`, in that order: 20.3% and > 100 µM (inactive).
`CN(C)c1ccc(/C=C/c2ccc3ccccc3[n+]2C)cc1`: the inhibition in assay [1] (at 50 µM) amounted to 85.8%. In assay [2], the concentration for half-maximal inhibition (IC50) was 22.3 µM.
On to `c1ccc(-n2c(-c3ccco3)nnc2-c2ccco2)cc1`, for which the inhibition in assay [1] (at 12.5 µM) came to 22.7%. Further, the IC50 in assay [2] is > 100 µM (inactive).
Consider `O=C1NCCCC1C(=O)N/N=C/c1cccc(O)c1` (configuration not stated), for which the inhibition in assay [1] (at 1.563 µM) came out at 16%. For the same compound, the IC50 in assay [2] is > 100 µM (inactive).
With `Oc1c(Br)cc(Br)cc1Oc1ccc(Br)cc1Br`, the inhibition in assay [1] (at 3.125 µM) was 4.84%. Besides, the IC50 in assay [2] is > 100 µM (inactive).
Take `Cc1ccc(Oc2nc(CN3CCOCC3)nc3sc4c(c23)CCC(C)C4)cc1C` (configuration not stated): in assay [1] (at 50 µM), the inhibition is 93.4%. Besides, the half-inhibitory concentration (IC50) in assay [2] was 23.5 µM.
For `Oc1c(I)cc(I)c2cccnc12`, in that order: 74.8% and 17.1 µM.
As for `Cc1ccc(/C=C/C(=O)c2ccccc(=O)c2O)c(C)c1`, the inhibition in assay [1] (at 25 µM) came out at 101%. Further, the concentration for half-maximal inhibition (IC50) in assay [2] was 6.08 µM.
On to `CCOc1cccc(-c2nnc3n2N=C(c2cc(OC)ccc2OC)CS3)c1`, for which the inhibition in assay [1] (at 6.25 µM) is 14.8%. The IC50 in assay [2] is > 100 µM (inactive).
As for `COc1ccc(-c2n[nH]c(C(F)(F)F)c2-c2cc3ccccc3o2)c(O)c1`, the inhibition in assay [1] (at 50 µM) was 53.6%. Also, the IC50 in assay [2] was 36.6 µM.
For `CC(C)CNC(=O)CN(C1CCCCC1)S(C)(=O)=O`, in assay [1] (at 1.563 µM), the inhibition came out at 9.04%. In addition, in assay [2], the IC50 was > 100 µM (inactive).
As to `Clc1ccc(CCNc2nc3ccccc3s2)cc1`, the inhibition in assay [1] (at 0.195 µM) was -6.19%. The IC50 in assay [2] was > 100 µM (inactive).
Take `Oc1cccc2ccc(Nc3ccccn3)nc12`: in assay [1] (at 50 µM), the inhibition was determined as 99.4%. Moreover, the half-maximal inhibitory concentration (IC50) in assay [2] is 12.5 µM.
`OC(Cn1cncn1)(c1ccccc1)c1ccccc1`: the inhibition in assay [1] (at 12.5 µM) was 90.3%. The IC50 in assay [2] is 6.82 µM.
For `O=c1cnn([C@@H]2O[C@H](CO)[C@@H](O)[C@H]2O)c(=O)[nH]1`, the inhibition in assay [1] (at 50 µM) amounted to 68.7%. Also, the IC50 in assay [2] is 16.6 µM.
For `CCN1/C(=C/c2ccc3cccc(C)c3[n+]2CC)Sc2ccccc21`, in that order: 99.4% and 8.03 µM.
Turning to `c1ccc(-c2nc(-n3ccnc3)nc(-n3ccnc3)n2)cc1`, the inhibition in assay [1] (at 1.563 µM) amounted to 17.9%. Also, the IC50 in assay [2] is > 100 µM (inactive).
On to `O=C(Oc1csc(=S)n1C(=O)c1ccccc1)c1ccccc1`, for which, in assay [1] (at 12.5 µM), the inhibition worked out at 11.4%. Moreover, the IC50 in assay [2] is > 100 µM (inactive).
On to `COc1ccc(C(=O)/C=C/Nc2ccc(C)cn2)cc1OC`, for which the inhibition in assay [1] (at 1.563 µM) was 14.8%. Also, the IC50 in assay [2] was > 100 µM (inactive).
On to `O=C(/C(=C/O)N=Nc1ccccc1)c1ccncc1`, for which, in assay [1] (at 50 µM), the inhibition was 100%. Moreover, in assay [2], the IC50 was 13.3 µM.
Turning to `CCOC(=O)c1c(-c2ccc(-c3ccccc3)cc2)csc1NC(=O)CCN1CCOCC1`, the inhibition in assay [1] (at 50 µM) was 94.6%. In addition, the IC50 in assay [2] was 15.5 µM.
As to `COc1ccc(OC)c(C2CC(=O)N3CN(c4cccc(Cl)c4)CSC3=C2C#N)c1` (configuration not stated), in assay [1] (at 25 µM), the inhibition came out at 15.2%. Further, in assay [2], the IC50 is > 100 µM (inactive).
For `O=[N+]([O-])c1cc(Cc2ccccc2)cc(C=Nc2ccc(N3CCOCC3)cc2)c1O`, in that order: 82.7% and 15 µM.
As to `O=C1OCC(CO)(CO)N=C1NNc1ccccc1Cl`, the inhibition in assay [1] (at 25 µM) was 98.4%. Besides, in assay [2], the IC50 is 3.49 µM.
The like results for `C=CCNC1=C(Cl)C(=O)c2ccccc2C1=O` were, in that order, 18.3% and > 100 µM (inactive).
With `CCc1cccc(C)c1NC(=S)NCc1ccc2[nH]c(C)cc2c1`, the inhibition in assay [1] (at 50 µM) came out at 8.77%. Also, the IC50 in assay [2] was > 100 µM (inactive).
For `COc1ccccc1NC(=O)Cc1noc(CSc2cccc[n+]2[O-])n1`, in that order: 97.7% and 21.9 µM.
Consider `Cc1nn(-c2ccc(F)cc2)c2sc(C(=O)O)cc12`, for which the inhibition in assay [1] (at 50 µM) was determined as 60.6%. Besides, the half-maximal inhibitory concentration (IC50) in assay [2] was 49.1 µM.
For `OC(CN1CCN(c2ccccn2)CC1)Cn1c2ccc(Cl)cc2c2cc(Cl)ccc21` (configuration not stated), in that order: 98.9% and 30.9 µM.
Regarding `O=C(O)c1ccc(N(c2ccccc2)c2ccccc2)cc1`, the inhibition in assay [1] (at 0.195 µM) was determined as 10.2%. The IC50 in assay [2] was > 100 µM (inactive).
Regarding `O=C(Nc1cccc(N=Cc2cc(Cl)cc(Br)c2O)c1)c1ccco1`, the inhibition in assay [1] (at 50 µM) came to 89.6%. Moreover, the concentration for half-maximal inhibition (IC50) in assay [2] is 25.8 µM.
Turning to `CN1CCN(C2=Cc3cc(Cl)ccc3Sc3cc(F)ccc32)CC1`, the inhibition in assay [1] (at 50 µM) was determined as 100%. In addition, the half-maximal inhibitory concentration (IC50) in assay [2] is 20.4 µM.
For `Cc1ccc(O)c(-c2cc(-c3ccccc3C)[nH]n2)c1`, in that order: 56.5% and 44.7 µM.
For `C/C(=N\Nc1ccc(Cl)c(Cl)c1)c1ccc(-n2ccnc2)cc1`, in that order: 96.7% and 26.7 µM.
The like results for `CCCn1c(Nc2nc3ccccc3n2C)nc2ccccc21` were, in that order, 97.9% and 45.1 µM.
As for `CCCCCC/C(=N/O)c1ccccn1`, in assay [1] (at 50 µM), the inhibition amounted to 99.6%. Also, in assay [2], the half-inhibitory concentration (IC50) was 9.77 µM.
The like results for `OC(CNCC1CCCO1)Cn1c2ccc(Br)cc2c2cc(Br)ccc21` (configuration not stated) were, in that order, 98.8% and 41 µM.
For `COc1ccc2c(C)nc(Nc3nc(C)c(C)c(=O)[nH]3)nc2c1`, in that order: 50.7% and 44.6 µM.
For `O=C(O)CCC(=O)N1CCN(c2nc(-c3ccccc3Cl)c3cc(Br)ccc3n2)CC1`, the inhibition in assay [1] (at 50 µM) came to 98.3%. For the same compound, in assay [2], the IC50 was 32 µM.
On to `O=C1C(=O)c2ccccc2-c2ccccc21`, for which, in assay [1] (at 50 µM), the inhibition was 99.2%. In assay [2], the IC50 is 1.01 µM.
`O=[N+]([O-])c1cc(CN2CCCC2)c2cccnc2c1O`: the inhibition in assay [1] (at 50 µM) is 21%. The IC50 in assay [2] was > 100 µM (inactive).
Consider `CCN1CCN(C(=O)C(NS(=O)(=O)c2ccc3nc(C)sc3c2)C(C)C)CC1` (configuration not stated), for which the inhibition in assay [1] (at 0.098 µM) was 16.9%. Further, the IC50 in assay [2] was > 100 µM (inactive).
Take `Cc1nn2c(-c3ccco3)nnc2c2ccccc12`: the inhibition in assay [1] (at 25 µM) came out at 14.3%. For the same compound, in assay [2], the IC50 was > 100 µM (inactive).
